Data reported in patent US8349835B2, “Aromatic ring fused triazine derivatives and uses thereof” (Shenyang Pharmaceutical University, priority 2008, dated 2013).
pIC50: −log10 of the molar value.

Experiments:
[1] = system: chorioallantoic membrane vessels; assay: Activity test by chick chorioallantoic membrane method; format: in vivo; conditions: 5 uL medicine on cellulose membrane, chick embryo, 2 days
Method: After the shell membrane became wet, tore it open with ophthalmological tweezers so to expose the chorioallantoic membrane. • 6) Added 5 uL of selected medicine to a 0.5×0.5 cm cellulose membrane sterilized by high pressure, then set the membrane on the part of the chorioallantoic membrane with fewer vessels • 7) Closed the window, and put the embryos back into the hatch box to hatch for 2 days. • 8) Opened the transparent tape, and then opened the mixed cellulose membrane lightly with a tweezers. Measured the avascular area and took photographs.

[2] = target: VEGFR-2 (Homo sapiens, UniProt P35968); assay: VEGFR-2 inhibition rate test (kinase assay kit, colorimetric ELISA); conditions: concentration not given
VEGFR-2, sequence (P35968 20-1356): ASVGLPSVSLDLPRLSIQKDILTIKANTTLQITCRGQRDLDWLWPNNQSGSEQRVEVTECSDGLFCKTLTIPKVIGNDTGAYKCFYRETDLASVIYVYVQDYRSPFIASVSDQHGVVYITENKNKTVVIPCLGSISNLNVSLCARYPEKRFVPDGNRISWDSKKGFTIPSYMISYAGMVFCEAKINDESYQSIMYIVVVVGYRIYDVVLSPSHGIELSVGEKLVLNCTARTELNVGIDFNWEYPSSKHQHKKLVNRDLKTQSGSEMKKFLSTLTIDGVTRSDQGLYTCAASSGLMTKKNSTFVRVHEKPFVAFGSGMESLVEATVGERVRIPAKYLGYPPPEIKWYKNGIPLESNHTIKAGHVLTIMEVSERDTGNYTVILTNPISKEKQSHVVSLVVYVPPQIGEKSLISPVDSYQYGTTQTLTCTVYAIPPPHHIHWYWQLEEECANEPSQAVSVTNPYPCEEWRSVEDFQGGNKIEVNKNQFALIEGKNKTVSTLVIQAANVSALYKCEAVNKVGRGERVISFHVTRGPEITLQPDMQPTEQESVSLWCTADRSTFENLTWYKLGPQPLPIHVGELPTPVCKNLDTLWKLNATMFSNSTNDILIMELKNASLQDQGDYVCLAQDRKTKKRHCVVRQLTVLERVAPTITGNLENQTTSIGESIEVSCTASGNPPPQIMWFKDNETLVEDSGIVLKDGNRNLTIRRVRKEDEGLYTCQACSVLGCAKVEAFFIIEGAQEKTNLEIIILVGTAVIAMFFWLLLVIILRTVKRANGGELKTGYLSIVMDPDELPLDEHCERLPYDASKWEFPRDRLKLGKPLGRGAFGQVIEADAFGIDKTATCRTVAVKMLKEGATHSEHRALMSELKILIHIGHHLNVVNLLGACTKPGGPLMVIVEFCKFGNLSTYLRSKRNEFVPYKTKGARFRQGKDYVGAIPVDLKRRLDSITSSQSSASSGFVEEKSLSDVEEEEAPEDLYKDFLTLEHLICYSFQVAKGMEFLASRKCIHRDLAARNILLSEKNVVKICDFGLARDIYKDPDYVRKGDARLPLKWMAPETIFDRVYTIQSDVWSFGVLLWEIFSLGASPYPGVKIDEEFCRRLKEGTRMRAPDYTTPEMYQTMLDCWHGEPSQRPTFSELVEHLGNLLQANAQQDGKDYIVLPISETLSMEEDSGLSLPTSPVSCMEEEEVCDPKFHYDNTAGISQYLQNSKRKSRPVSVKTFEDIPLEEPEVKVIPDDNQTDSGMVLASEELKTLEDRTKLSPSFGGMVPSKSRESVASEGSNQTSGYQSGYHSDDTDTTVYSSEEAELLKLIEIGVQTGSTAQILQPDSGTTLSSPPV

[3] = system: Rat aortic ring; assay: Rat Aortic Ring Assay; format: cell-based; conditions: for Rat Aortic Ring Assay (10 ug/ml), result in words: observed on the sixth day; for inhibition at 10 µg/mL: Rattus norvegicus, 10 ug/ml, compared with blank control, sixth day
Text: Rat Aortic Ring Assay • 1) 6 week old SD […] (Sprague Dawley) were selected for the experiments. Cleaned abdominal skin with 75% ethanol to disinfect, and then anesthetized the mice with ether, • 2) Carefully removed the abdominal aortas and transferred the aortas to normal saline. Excessive vascular tissues were carefully removed with scissors. • 3) The aortas were rinsed with normal saline until no blood stain remained. • 4) Sectioned the aortas into one millimeter depth arterial slices with ophthalmological scissors. • 5) Add 50 μL pre-thawed Matrigel to each well of the pre-cooled 96 well cell culture plates, and embedded the ring-shaped mouse aortas in collagen gel. • 6) Incubated for 60 minutes at 37° C. to solidificate the gel. • 7) Added DMEM culture solution containing 10% FBS, along with different concentrations of the selected compounds into the wells and cultured in the incubator. Every compound was repeated in no less than 3 wells. • 8) Replaced with the fresh medium and changed the medicine once on the third day. • 9) Took out the pates on the sixth day, and observed the vascular growth with Microscope (OLYMPUS, DP70, Japan) and took photographs(×100). Randomly chose 3 arterial rings to photograph and calculated the area covered by micro-vascular with Image Pro Plus software. The inhibition rate is calculated as:
[formula] • Evaluation criteria: ⋆inhibition rate[…]; ⋆⋆inhibition rate 60-90%; ⋆⋆⋆inhibition rate>90%.

[4] = system: Microvascular Endothelial Cells (MVEC); assay: MTT growth inhibition of MVEC; format: cell-based; conditions: Endothelial cell, 96 h, 4 days culture with drug, read-out: IG50 on inhibiting growth of MVEC
Method: In Vitro Anti-Tumor Activity Test
Put cell suspension into centrifugal tubes with a pipette under sterile conditions, then the cell suspension was centrifuged for 3 minutes at 1300 rpm. Discarded the supernatant lightly and added fresh culture medium. Mixed the cells by pipetting, then transferred the cells into culture flasks, and put them into the CO2 incubator. Changed the culture medium once after 24 hours.
Human prostate cancer cells (DU145, PC-3) were cultured in a medium containing RPMI1640 basic medium supplemented with 10% heat-inactivated FBS, 100 IU/mL penicillin, 100 μg/mL streptomycin and 1 mmol/L L-glutamine. Human breast carcinoma cells (T47D, MDA-MB231) were cultured in a medium containing RPM11640 basic medium supplemented with 10% heat-inactivated FBS, 5 μg/mL insulin, 100 IU/mL penicillin, 100 μg/mL streptomycin and 1 mmol/L L-glutamine. Human breast carcinoma cells (MCF-7) were cultured in a medium containing DMEM basic medium supplemented with 10% heat-inactivated FBS, 5 μg/mL insulin, 100 IU/mL penicillin, 100 μg/mL streptomycin and […]. Murine Lewis lung cancer cells (LL/2), murine melanoma cells (B16FD) and Microvascular Endothelial Cells (MVEC) were cultured in a medium containing DMEM basic medium supplemented with 10% heat-inactivated FBS, 4.5 g/L glucose, 1.5 g/L NaHCO3, 100 IU/mL penicillin, 100 μg/mL streptomycin and 4 mmol/L L-glutamine. All these cell lines were incubated at 37° C. biochemical incubator with 5% CO2 saturated humidity.
After resuscitation, the cells were passed for 2-3 generations till they became stable, then they were used for the experiments. Each passage was based on the standard that all cells were spread over the bottoms of culture flasks.
Cells were digested off from the bottoms of culture flasks with trypsin (0.25%). The cell dissociation buffer was transferred into centrifuge tubes, added medium to stop the digestion, and centrifuged for 3 minutes at 1300 rpm. Discarded the supernatant lightly and added fresh culture medium (5 mL). Mixed the cells by pipetting, then added 10 μL of the cell suspension into the cell counting plate, and adjusted the cell concentration to 2×10^4 cells/mL. Added 100 μL of the cell suspension to all wells on the 96 well plates, except A1 well as the blank control. Put the plates into the biochemical incubator for 24 hours and to make sure the cells grew along the walls.
The drugs were dissolved in 80 mmol/L DMSO first, and then diluted the drugs with ethanol to 8 mmol/L. The solution was further diluted with the culture medium to different concentrations as 160 μmol/L, 120 μmol/L, 80 μmol/L, 40 μmol/L, 20 μmol/L and 10 μmol/L. Added 100 μL of the drug solution to each well on the 96 well plates. Therefore, the final concentrations of the drugs that were added to the cells were 80 μmol/L, 40 μmol/L, 20 μmol/L, 10 μmol/L and 5 μmol/L, and each concentration were repeated in three parallel wells. Put the culture plates into the biochemical incubator to culture continuously for 4 days.
Added 50 μL MTT liquids (2 mg/mL) into each well, put the culture plates into the biochemical incubator for 4 h, discarded MTT liquids (TCC), added 200 μL DMSO, then oscillated for 10 minutes on the magnetic oscillator to make sure that the survived cells and the reaction product of MTT were fully dissolved. Detected and recorded the absorbance (OD) values of each well at the wavelength of 570 nm using the microplate reader. The OD values of cells without tested drugs were used as control. The cell growth inhibition rates under each drug concentration were calculated by the following formula. […] Inhibition rate of growth(%)=(1−The absorbance(OD)of cells with tested drugs/The absorbance(OD)of the blank control group)×100%
The absorbance (OD) of cells with tested drugs: OD value is measured with the test drugs.
The absorbance (OD) of the blank control group: OD value is measured without the test drugs. […]

Row | SMILES | The inhibitory effect on the growth of chorioallantoic membrane vessels [1] | Kinase inhibition rate (VEGFR-2) [2] | Rat Aortic Ring Assay (10 ug/ml), result in words [3] | inhibition at 10 µg/mL [3] [%] | pIC50 [4]
1 | Fc1ccccc1Nc1nnnc2ccccc12 [Example 3, 4-(2-fluoroanilino)-benzo[d][1,2,3]triazine] | Significant inhibition in two of three samples, | 19.78 | No significant inhibition | – | –
2 | Clc1cccc(Nc2nnnc3ccccc23)c1 [Example 4, 4-(3-chloroanilino)-benzo[d][1,2,3]triazine] | The vascular growth is abundant | 12.83 | – | – | –
3 | FC(F)(F)Oc1ccc(Nc2nnnc3ccccc23)cc1 [Example 6, 4-(4-trifluoromethoxyanilino)-benzo[d][1,2,3]triazine] | One of the two samples exhibits significant fracture, | −33.42 | No significant inhibition | – | –
4 | FC(F)(F)Oc1cccc(Nc2nnnc3ccccc23)c1 [Example 7, 4-(3-trifluoromethoxyanilino)-benzo[d][1,2,3]triazine] | Two samples exhibit significant inhibition ring | −17.64 | No significant inhibition | – | –
5 | CCCCOc1cc2nnnc(Nc3cccc(OC(F)(F)F)c3)c2cc1OC [Example 19, 6-methoxy-7-n-butoxy-4-(3-trifluoromethoxyanilino)-benzo[d][1,2,3]triazine] | Vessels are broken in one of two samples, | −56.68 | No significant inhibition compared with the blank control. | – | –
6 | CCCCOc1cc2nnnc(Nc3ccc(OC(F)(F)F)cc3)c2cc1OC [Example 20, 6-methoxy-7-n-butoxy-4-(4-trifluoromethoxyanilino)-benzo[d][1,2,3]triazine] | One of the two samples exhibits significant inhibition, and the other | – | Cell proliferation and migration were not significantly affected, | – | –
7 | CCCCOc1cc2nnnc(Nc3cccc(Cl)c3)c2cc1OC [Example 21, 6-methoxy-7-n-butoxy-4-(3-chloroanilino)-benzo[d][1,2,3]triazine] | The vessels covered by paper become thinner, and another embryo is dead. | 2.40 | No significant inhibition | – | –
8 | CCOc1cc2nnnc(Nc3cccc(C(F)(F)F)c3)c2cc1OC [Example 34, 6-methoxy-7-ethoxy-4-(3-trifluoromethylanilino)-benzo[d][1,2,3]triazine] | One of the two samples exhibits significant inhibition zone, and the other | – | – | > 80 | –
9 | CCOc1cc2nnnc(Nc3cccc(Cl)c3)c2cc1OC [Example 38, 6-methoxy-7-ethoxy-4-(3-chloroanilino)-benzo[d][1,2,3]triazine] | One embryo is dead. | – | No significant inhibition | – | –
10 | CCOc1cc2nnnc(Nc3ccc(F)c(Cl)c3)c2cc1OC [Example 39, 6-methoxy-7-ethoxy-4-(3-chloro-4-fluoroanilino)-benzo[d][1,2,3]triazine] | One embryo is dead, and the other exhibits no significant inhibition | 46.67 | No significant inhibition | – | –
11 | CCOc1cc2nnnc(Nc3ccccc3F)c2cc1OC [Example 41, 6-methoxy-7-ethoxy-4-(2-fluoroanilino)-benzo[d][1,2,3]triazine] | One embryo is dead, and the other exhibits no significant inhibition | – | No significant inhibition | – | –
12 | CCOc1cc2nnnc(Nc3cccc(Br)c3)c2cc1OC [Example 42, 6-methoxy-7-ethoxy-4-(3-bromoanilino)-benzo[d][1,2,3]triazine] | One of the two samples exhibits inhibition | – | – | ~40 | –
13 | CCCCCOc1cc2nnnc(Nc3ccc(F)cc3)c2cc1OC [Example 59, 6-methoxy-7-pentyloxy-4-(4-fluoroanilino)-benzo[d][1,2,3]triazine] | The vessels become fewer, but not thinner. The medicine precipitates out. | – | No significant inhibition | – | –
14 | Clc1ccc2nnnc(Nc3ccccc3)c2n1 [Example 78, 6-chloro-4-anilino-pyrido[3,2-d][1,2,3]triazine] | – | 15.87 | No significant inhibition in the previous 3 days, but vascular ring | – | 4.97
15 | Fc1cc(F)cc(Nc2nnnc3ccc(Cl)nc23)c1 [Example 81, 6-chloro-4-(3,5-difluoroanilino)pyrido[3,2-d][1,2,3]triazine] | – | −6.44 | Almost complete inhibition (10 μg/mL), vascular ring was dead. | – | 4.99
16 | Clc1ccc(Nc2nnnc3ncc(Cl)cc23)cc1 [Example 83, 6-chloro-4-(4-chloroanilino)pyrido[3,2][1,2,3]triazine] | – | 23.56 | No significant inhibition | – | 4.98
17 | Clc1cccc(Nc2nnnc3ccc(Cl)nc23)c1 [Example 88, 6-chloro-4-(3-chloroanilino)pyrido[3,2-d][1,2,3]triazine] | – | 2.39 | Almost complete inhibition (10 μg/mL), vascular ring was dead | – | 4.90
